In one assay the test system is cMYC in NCI-H82. Nature of the assay: Western blot analysis of cMYC protein level in NCI-H82 cells. It is filed as cell-based. As to conditions: 24 h; for effect on cMYC protein level in NCI-H82: various concentrations; for NCI-H82 cMYC, relative protein level: 1.0 μM of compound, mean ± SD, triplicate. The protocol: (§1) Cancer cells were treated with each of the compounds at different compound concentrations. […] Each lysate was separated by sodium dodecyl sulfate polyacrylamide gel electrophoresis (SDS-PAGE), transferred to polyvinylidene fluoride (PVDF, Millipore, USA) membrane, and blotted with antibodies. […] After the blotting (0.2% casein, 1% BSA, or 5% nonfat milk), membranes were washed with blotting buffer (0.2% casein in 1× PBS or 1× TBST), and corresponding alkaline phosphatase (AP)- or horseradish peroxidase (HRP)-conjugated secondary antibodies (Sigma-Aldrich) were added. The blots were developed by chemiluminescence (PerkinElmer, USA).
A general note: In western blotting, separated proteins are transferred to a membrane and probed.

The test system of the next assay is MYCN in SK-N-BE(2). Nature of the assay: Western blot analysis of MYCN protein level in SK-N-BE(2) cells. As to conditions: 1.0 μM of compound, 24 h, mean ± SD, triplicate. The assay is classed as cell-based. The protocol: as §1
The target of assay [1] is T1, human Aurora A (amino acids 123–401) (Homo sapiens, UniProt O14965).
T1 construct: N-terminal truncated human Aurora A (amino acids 123–401); GST; made in house; host or cells: Sf9 insect cells
T1 sequence (O14965 123-401): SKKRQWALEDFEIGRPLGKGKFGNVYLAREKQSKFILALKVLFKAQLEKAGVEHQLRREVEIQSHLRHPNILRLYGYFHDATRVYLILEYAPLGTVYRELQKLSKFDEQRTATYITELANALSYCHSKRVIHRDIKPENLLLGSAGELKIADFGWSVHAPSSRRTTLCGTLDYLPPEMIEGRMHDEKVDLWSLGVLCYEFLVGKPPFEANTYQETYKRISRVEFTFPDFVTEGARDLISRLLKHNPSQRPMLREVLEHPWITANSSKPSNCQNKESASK
Nature of the assay: In vitro inhibition of Aurora A kinase activity (Kinase-Glo Plus Luminescent Kinase assay, ATP consumption). The assay is classed as biochemical. Conditions: for IC50: mean of 2–3 independent determinations ± SD, >100 = inhibition < 50% at 100 nM. The protocol: The inhibitory potency of the newly synthesized small molecules against Aurora A was first measured in ATP consumption assays using purified Aurora A protein.
The efficacy of the compounds as inhibitors of Aurora A kinase was assessed in vitro using the Kinase-Glo Plus Luminescent Kinase assay (Promega, USA), as described previously.[45] […] The resulting mixture was incubated at 25 °C for 20 min. A 70 μL aliquot of the mixture was transferred to a black microtiter plate.
On the technique in general: Kinase-Glo measures the ATP left after a reaction by luminescence.

The structures appear in SMILES notation.

Usually IC50 stands for the concentration at which inhibition is half-maximal.

With `CCN1CCN(C(=O)Cc2ccc(Nc3ncc(F)c(Nc4ccc(C(=O)Nc5ccccc5Cl)cc4)n3)cc2)CC1` [Aurora A inhibitor I, reference compound], the “effect on cMYC protein level in NCI-H82” value in the assay on cMYC in NCI-H82 is “limited effect”.
For the molecule `CCN1CCN(c2cc(Nc3cc(C)[nH]n3)nc(N[C@H]3CCN(C(=O)c4cc(F)c(Cl)cc4F)C3)n2)CC1` [Compound 16, (S)-(4-Chloro-2,5-difluorophenyl) (3-((4-(4-ethylpiperazin-1-yl)-6-((5-methyl-1H-pyrazol-3-yl)amino)pyrimidin-2-yl)amino)pyrrolidin-1-yl)methanone], in the assay on MYCN in SK-N-BE(2), the “SK-N-BE(2) MYCN, relative protein level” value was 0.792 ± 0.170. In addition, in the assay on cMYC in NCI-H82, the “NCI-H82 cMYC, relative protein level” value is given as 0.834 ± 0.121. Moreover, the IC50 in assay [1] turned out to be 50.9 ± 2.3 nM.
For `CCN1CCN(c2cc(Nc3cc(C)[nH]n3)nc(N[C@H]3CCN(C(=O)c4ccc(Cl)cc4)C3)n2)CC1` [Compound 7, (S)-(4-Chlorophenyl) (3-((4-(4-ethylpiperazin-1-yl)-6-((5-methyl-1H-pyrazol-3-yl)amino)pyrimidin-2-yl)amino)pyrrolidin-1-yl)methanone] the same measures were 0.889 ± 0.067, 0.887 ± 0.050 and 42.9 ± 2.6 nM.
The like results for `CCN1CCN(c2cc(Nc3cc(C)[nH]n3)nc(N[C@H]3CCN(C(=O)c4ccc(Cl)cc4C)C3)n2)CC1` [Compound 9, (S)-(4-Chloro-2-methylphenyl) (3-((4-(4-ethylpiperazin-1-yl)-6-((5-methyl-1H-pyrazol-3-yl)amino)pyrimidin-2-yl)amino)pyrrolidin-1-yl)methanone] were, in that order, 1.057 ± 0.312, 0.984 ± 0.052 and 64.9 ± 8.5 nM.
The like results for `CCN1CCN(c2cc(Nc3cc(C)[nH]n3)nc(N[C@H]3CCN(C(=O)c4ccc(Cl)c(F)c4F)C3)n2)CC1` [Compound 17, (S)-(4-Chloro-2,3-difluorophenyl) (3-((4-(4-ethylpiperazin-1-yl)-6-((5-methyl-1H-pyrazol-3-yl)amino)pyrimidin-2-yl)amino)pyrrolidin-1-yl)methanone] were, in that order, 0.541 ± 0.068, 0.744 ± 0.124 and 64.9 ± 13.7 nM.
Take `Cc1cc(Nc2cc(N3CCN(C)CC3)nc(N[C@H]3CCN(C(=O)c4cccc(Cl)c4F)C3)n2)n[nH]1` [Compound 2, (S)-(3-Chloro-2-fluorophenyl) (3-((4-((5-methyl-1H-pyrazol-3-yl)amino)-6-(4-methylpiperazin-1-yl)pyrimidin-2-yl)amino)pyrrolidin-1-yl)methanone]: the IC50 in assay [1] is 25.7 ± 4.9 nM.
In the case of `CCN1CCN(c2cc(Nc3cc(C)[nH]n3)nc(N[C@H]3CCN(C(=O)c4ccc(Cl)nc4F)C3)n2)CC1` [Compound 20, (S)-(6-Chloro-2-fluoropyridin-3-yl) (3-((4-(4-ethylpiperazin-1-yl)-6-((5-methyl-1H-pyrazol-3-yl)amino)pyrimidin-2-yl)amino)pyrrolidin-1-yl)methanone], in assay [1], the “reduction of Aurora A inhibitory potency versus 13” value is “more than 2.5 fold” and the IC50 is over 100 nM.
For the molecule `Cc1cc(Nc2cc(N3CC[C@H](N(C)C)C3)nc(N[C@H]3CCN(C(=O)c4cccc(Cl)c4F)C3)n2)n[nH]1` [Compound 4, (3-Chloro-2-fluorophenyl) ((S)-3-((4-((S)-3-(dimethylamino)pyrrolidin-1-yl)-6-((5-methyl-1H-pyrazol-3-yl)amino)pyrimidin-2-yl)amino)pyrrolidin-1-yl)methanone], in assay [1], the IC50 is 29.8 ± 0.7 nM.
Turning to `CCN1CCN(c2cc(Nc3cc(C)[nH]n3)nc(N[C@H]3CCN(C(=O)c4ccc(Cl)cc4Cl)C3)n2)CC1` [Compound 8, (S)-(2,4-Dichlorophenyl) (3-((4-(4-ethylpiperazin-1-yl)-6-((5-methyl-1H-pyrazol-3-yl)amino)pyrimidin-2-yl)amino)pyrrolidin-1-yl)methanone], in the assay with MYCN in SK-N-BE(2), the “SK-N-BE(2) MYCN, relative protein level” value turned out to be 1.000 ± 0.035. Further, the “NCI-H82 cMYC, relative protein level” value in the assay on cMYC in NCI-H82 was 1.175 ± 0.124. The IC50 in assay [1] is 48.2 ± 9.7 nM.
The like results for `CCN1CCN(c2cc(Nc3cc(C)[nH]n3)nc(N[C@H]3CCN(C(=O)c4c(F)cc(Cl)cc4F)C3)n2)CC1` [Compound 15, (S)-(4-Chloro-2,6-difluorophenyl) (3-((4-(4-ethylpiperazin-1-yl)-6-((5-methyl-1H-pyrazol-3-yl)amino)pyrimidin-2-yl)amino)pyrrolidin-1-yl)methanone] were, in that order, 0.757 ± 0.121, 1.153 ± 0.158 and 56.7 ± 3.9 nM.
`CCN(CCCOc1ccc2c(Nc3cc(CC(=O)Nc4cccc(F)c4)[nH]n3)ncnc2c1)CCOP(=O)(O)O` [AZD1152, reference compound]: the “effect on cMYC protein level in NCI-H82” value in the assay on cMYC in NCI-H82 is “limited effect”.
In the case of `CCN1CCN(c2cc(Nc3cc(C)[nH]n3)nc(N[C@H]3CCN(C(=O)c4ccc(C(F)(F)F)cc4F)C3)n2)CC1` [Compound 14, (S)-(3-((4-(4-Ethylpiperazin-1-yl)-6-((5-methyl-1H-pyrazol-3-yl)amino)pyrimidin-2-yl)amino)pyrrolidin-1-yl) (2-fluoro-4-(trifluoromethyl)phenyl)methanone], the IC50 in assay [1] is over 100 nM.
In the case of `CCN1CCN(c2cc(Nc3cc(C)[nH]n3)nc(N[C@H]3CCN(C(=O)c4ccc(Cl)c(C)c4)C3)n2)CC1` [Compound 11, (S)-(4-Chloro-3-methylphenyl) (3-((4-(4-ethylpiperazin-1-yl)-6-((5-methyl-1H-pyrazol-3-yl)amino)pyrimidin-2-yl)amino)pyrrolidin-1-yl)methanone], the “SK-N-BE(2) MYCN, relative protein level” value in the assay with MYCN in SK-N-BE(2) is 1.030 ± 0.256. Moreover, the “NCI-H82 cMYC, relative protein level” value in the assay on cMYC in NCI-H82 amounted to 1.050 ± 0.060. Besides, in assay [1], the IC50 amounted to 58.1 ± 7.4 nM.
Regarding `CCN1CCN(c2cc(Nc3cc(C)[nH]n3)nc(N[C@H]3CCN(S(=O)(=O)c4ccc(Cl)cc4F)C3)n2)CC1` [Compound 21, (S)-N^2-(1-((4-Chloro-2-fluorophenyl)sulfonyl)pyrrolidin-3-yl)-6-(4-ethylpiperazin-1-yl)-N^4-(5-methyl-1H-pyrazol-3-yl)pyrimidine-2,4-diamine], in assay [1], the “reduction of Aurora A inhibitory potency versus 13” value is listed as “more than 2.5 fold” and the IC50 is over 100 nM.
Regarding `CCN1CCN(c2cc(Nc3cc(C)[nH]n3)nc(N[C@H]3CCN(C(=O)c4cc(F)c(F)cc4F)C3)n2)CC1` [Compound 19, (S)-(3-((4-(4-Ethylpiperazin-1-yl)-6-((5-methyl-1H-pyrazol-3-yl)amino)pyrimidin-2-yl)amino)pyrrolidin-1-yl) (2,4,5-trifluorophenyl)methanone], the IC50 in assay [1] is over 100 nM.
On the same count and under the same terms, the same measure for `Cc1cc(Nc2cc(N3CC(N(C)C)C3)nc(N[C@H]3CCN(C(=O)c4cccc(Cl)c4F)C3)n2)n[nH]1` [Compound 3, (S)-(3-Chloro-2-fluorophenyl) (3-((4-(3-(dimethylamino)azetidin-1-yl)-6-((5-methyl-1H-pyrazol-3-yl)amino)pyrimidin-2-yl)amino)pyrrolidin-1-yl)methanone]: 29.8 ± 2.5 nM; for `CCN1CCN(c2cc(Nc3cc(C)[nH]n3)nc(N[C@H]3CCN(C(=O)c4ccccc4)C3)n2)CC1` [Compound 6, (S)-(3-((4-(4-Ethylpiperazin-1-yl)-6-((5-methyl-1H-pyrazol-3-yl)amino)pyrimidin-2-yl)amino)pyrrolidin-1-yl) (phenyl)methanone]: 29 ± 6.7 nM.
The same measure, in the same setting: the same measure for `Cc1cc(Nc2cc(N(C)CCN(C)C)nc(N[C@H]3CCN(C(=O)c4cccc(Cl)c4F)C3)n2)n[nH]1` [Compound 5, (S)-(3-Chloro-2-fluorophenyl) (3-((4-((2-(dimethylamino)ethyl) (methyl)amino)-6-((5-methyl-1H-pyrazol-3-yl)amino)pyrimidin-2-yl)amino)pyrrolidin-1-yl)methanone]: 40.8 ± 2.8 nM; for `CCN1CCN(c2cc(Nc3cc(C)[nH]n3)nc(N[C@H]3CCN(C(=O)c4cc(F)c(Cl)c(F)c4)C3)n2)CC1` [Compound 18, (S)-(4-Chloro-3,5-difluorophenyl) (3-((4-(4-ethylpiperazin-1-yl)-6-((5-methyl-1H-pyrazol-3-yl)amino)pyrimidin-2-yl)amino)pyrrolidin-1-yl)methanone]: over 100 nM.
For the molecule `CCN1CCN(c2cc(Nc3cc(C)[nH]n3)nc(N[C@H]3CCN(C(=O)c4cccc(Cl)c4F)C3)n2)CC1` [Compound 1, (S)-(3-Chloro-2-fluorophenyl) (3-((4-(4-ethylpiperazin-1-yl)-6-((5-methyl-1H-pyrazol-3-yl)amino)pyrimidin-2-yl)amino)pyrrolidin-1-yl)methanone], the “NCI-H82 cMYC, relative protein level” value in the assay with cMYC in NCI-H82 stood at 0.781 ± 0.015. Further, in assay [1], the IC50 was 24.1 ± 7.9 nM.
